# In patent publication US20110319384A1, “Pharmaceutical Compositions” (priority 2005, published 2011):
# Tests used:
# [1] = test system: outpatient adults with SRI-resistant OCD
# [2] = test system: patients with Social Anxiety Disorder (SAD)
# [3] = test system: patients with treatment-resistant depression; experiment: Example 32: 8-week double-blind randomized placebo-controlled study, quetiapine added to SSRI/SNRI
# Source text: Pregnant or lactating women, or those who were planning on becoming pregnant were not allowed to participate either. Participation in a clinical research study within 90 days of the start of this study also precluded applicants from participating. […] The primary efficacy endpoint for this study was HAM-D score at Week 8. Secondary endpoints included: (1) response (≧50% reduction in HAM-D score) and remission (HAM-D score <7) rates; (2) final Montgomery-Asberg Rating Scale score (MADRS); (3) CGI-S scores; and (4) CGI-I scores. Efficacy was assessed at baseline, then at Weeks 1, 2, 3, 4, 6, and 8. Adverse events (AEs) were also monitored.
structure (smiles),measurement,setting,value
"OCCOCCN1CCN(C2=Nc3ccccc3Sc3ccccc32)CC1 [quetiapine, 11-[4-[2-(2-hydroxyethoxy)ethyl]-1-piperazinyl]-dibenzo[b,f][1,4]thiazepine]",mean MADRS score at baseline,[1]; added to SRI,about 19
same,mean MADRS score at trial end,[1]; added to SRI,about 15
same,"mean Y-BOCS score at baseline, the 5 patients that responded",[1]; added to SRI,about 30
same,"mean Y-BOCS score after treatment, the 5 patients that responded","[1]; added to SRI, 8 weeks",about 17
same,patients who responded to treatment (≧25% decrease in Y-BOCS score at endpoint),"[1]; added to SRI, final mean dosage about 169 mg/day",Five of the 16
same,most common adverse events,[1]; in vivo,Sedation and fatigue
same,patients who withdrew because of an adverse event,[1]; in vivo,1 patient
same,severity of adverse events,[1]; in vivo,generally mild
same,BSPS scores versus placebo at baseline or endpoint,[2]; in vivo,no significant differences
same,SPIN or SDI scores versus placebo at baseline or endpoint,[2]; in vivo,no significant difference
same,mean CGI-I scores at endpoint versus placebo,[2]; in vivo,no significant difference
same,most frequent side effects,[2]; in vivo,"drowsiness, dizziness, and nausea"
same,serious adverse events,[2]; in vivo,No serious adverse events were reported
same,patients who scored a 1 or 2 on the CGI-I scale,[2]; placebo 0%,40%
same,patients experiencing a ≧50% drop in BSPS score at endpoint compared with baseline,"[2]; placebo 0%, mean final dose 147 mg twice a day",20%
same,mean HAM-D score at study end,"[3]; added to SSRI/SNRI, Week 8, placebo about 15",about 8
same,mean MADRS score at study end,"[3]; added to SSRI/SNRI, placebo about 24",about 15
same,mean weight gain,[3]; in vivo,about 6 kg
same,most common side effects,[3]; in vivo,"fatigue, dry mouth, and sedation/somnolence"
same,patients who withdrew from the study due to serious adverse events,[3]; in vivo,No patients
same,tolerability,[3]; in vivo,generally well-tolerated
same,final mean CGI-I score,[3]; placebo 3.5,2.5
same,final mean CGI-S score,[3]; placebo 3.8,2.8
same,patients who achieved remission (HAM-D score <7),[3]; placebo 15%,43%
same,patients who responded to treatment (≧50% reduction in HAM-D score),[3]; placebo 27%,67%
